Reference: patent US12552800B2, “Compounds for diagnosis” (AC IMMUNE SA, priority 2020, dated 2026)

Experiments:
[1] = target: T1, PD brain-derived a-syn aggregates (Homo sapiens, UniProt P37840); assay: Micro-radiobinding competition assay against Example-1 [^3H-1] (Table 8); type: binding; details: human PD brain-derived a-syn aggregates; for Competition at 100 nM (%): 100 nM non-radiolabelled example compound vs Example-1 [^3H-1] ligand; for Competition at 1 μM (%): 1 μM non-radiolabelled example compound vs Example-1 [^3H-1] ligand
T1 construct: from tissue; host or cells: human PD donor brain, sarkosyl-insoluble 100,000 x g pellet
Method in brief: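 Human PD brain-derived α-syn aggregates on microarray slides were co-incubated with 6 nM or 20 nM tritiated radioligand and unlabelled compound at 1 μM and 100 nM, some over 0.05 nM–2 μM. Bound signal read by real-time autoradiography; values are % competition, at least two technical replicates, mean of independent experiments.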

[2] = target: T1, PD brain-derived a-syn aggregates; assay: as above; type: binding; details: competition over Example-1 [^3H-1]
[3] = target: T1, PD brain-derived a-syn aggregates; assay: Micro-radiobinding competition assay against [^3H]-a-syn-Ref; type: binding; details: for Competition at 1 μM (%): over [^3H]-a-syn-Ref at 20 nM, example compound at 1 μM
Experimental: The procedure was adapted from the protocol described in Spillantini et al., 1998. Frozen tissue blocks from PD donors were thawed on ice and homogenized using a glass dounce homogenizer. The homogenate was then centrifuged at 11,000×g (12,700 RPM) in an ultracentrifuge (Beckman, XL100K) for 20 minutes at 4° C. using a pre-cooled 70.1 rotor (Beckman, 342184). Pellets were resuspended in extraction buffer [10 mM Tris-HCl pH 7.4, 10% sucrose, […], 1% protease inhibitor (Calbiochem 539131), 1 mM EGTA, 1% phosphatase inhibitor (Sigma P5726 and P0044)] and centrifuged at 15,000×g (14,800 RPM, a 70.1 Ti rotor) for 20 minutes at 4° C. Pellets were discarded and sarkosyl (20% stock solution, Sigma L7414) was added to the supernatants to a final concentration of 1% at room temperature for one hour. This solution was then centrifuged at 100,000×g (38,000 RPM, 70.1 Ti rotor) for one hour at 4° C. Pellets containing enriched a-syn aggregates were resuspended in PBS and stored at −80° C. until use.
PD brain-derived a-syn aggregates were spotted onto microarray slides. The slides were incubated with the tritiated reference ligand, [^3H]-a-syn-Ref (as described in WO2017/153601) at 20 nM and the example compounds of this invention (non-radiolabelled) either at 1 μM or at increasing concentrations in the range of 50 pM to 2 μM. After incubation, slides were washed and exposed to a phosphor storage screen (GE healthcare, BAS-IP TR 2025). Following exposure, phosphor storage screens were scanned with a laser imaging system (Typhoon FLA 7000) to readout the signal from the radiobinding experiments described above. Quantification of the signal was performed using the ImageJ software package. […] All measurements were performed with at least two technical replicates.
Example compounds were assessed for their potency to compete with the binding of [3H] radiolabelled reference ligand to PD patient brain-derived a-syn aggregates. Results of the micro-radiobinding competition assay for the example compounds tested are shown in Table 5 as: % competition at 1 μM and Ki value. All measurements were performed on the same PD brain-derived a-syn aggregates.

[4] = target: T2, Abeta pathological aggregates (Homo sapiens, UniProt P05067); assay: Radiobinding competition assay against [^3H]-Abeta-Ref on AD brain homogenates (example compound 1); type: binding
T2 construct: Abeta pathological aggregates present in the human AD brain homogenates; from tissue; host or cells: human AD donor brain, Triton/sucrose-insoluble 100,000 x g pellet
T2 sequence (P05067 672-713 limits assumed): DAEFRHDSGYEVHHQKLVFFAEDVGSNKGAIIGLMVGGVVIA
Experimental: The procedure was adapted from the protocol described in Bagchi et al., 2013. Frozen tissue blocks from AD donors were thawed on ice and homogenized in high salt buffer (50 mM Tris-HCl pH 7.5, 0.75M NaCl, 5 mM EDTA) supplemented with protease inhibitors (Complete; Roche 11697498001) at 4° C. using a glass Dounce homogenizer. The homogenate was centrifuged at 100,000×g (38,000 RPM) in an ultracentrifuge (Beckman, XL100K) for one hour at 4° C. using a pre-cooled 70.1 rotor (Beckman, 342184). Pellets were resuspended in high salt buffer supplemented with 1% Triton X-100 and homogenized at 4° C. using a glass Dounce homogenizer. The homogenates were centrifuged again at 100,000×g (38,000 RPM, 70.1 rotor) for one hour at 4° C. Pellets were resuspended in high salt buffer supplemented with 1% Triton X-100 and 1 M sucrose and homogenized at 4° C. using a glass Dounce homogenizer. The homogenates were centrifuged at 100,000×g (38,000 RPM, 70.1 rotor) for one hour at 4° C. […]
A fixed concentration of AD insoluble fraction was incubated with a tritiated reference Abeta ligand ([^3H]-Abeta-Ref) at 10 nM and increasing concentrations of non-radiolabelled example compound 1 in the range of […] to 2 μM for two hours at RT. […] The filters were analyzed on a Microbeta2 scintillation counter (PerkinElmer). […]

[5] = PK study in a healthy monkey by PET; type: in vivo, Non-Human Primate (NHP); details: iv, 6.5 mCi
Experimental: Non-Human Primate (NHP) was injected intravenously (iv) with the ^18F-labelled Example-1 [^18F-1] (6.5 mCi) using 1 mL ethanol and 14 mL ascorbate/saline (ascorbate solution was prepared at a concentration of 9.3 mg/mL). Monkey PET scans were performed using a Siemens Focus 220. PET acquisition started immediately before the radioactive dose was injected. Images were generated as dynamic scans for 120 minutes with head focused.

Compound	Competition at 100 nM (%) [1]	Competition at 1 μM (%) [1]	Ki [2]	further results
O=C1c2cn(-c3ccc(N4CC[C@@H](F)C4)nc3)nc2CN1c1ccnnc1 [Example 25]	64%	94%	68 nM	
O=C1c2cn(-c3ccc(N4CCCC4)nc3)nc2CN1c1cncc(F)n1 [Example 139]	58%	77%	7 nM	
O=C1c2cn(-c3ccc(N4CC[C@H](F)C4)nc3)nc2CN1c1cccnc1 [Example 3]	45%	89%	57 nM	
O=C1c2cn(-c3ccc(N4CC[C@H](F)C4)nc3)nc2CN1c1ncccn1 [Example 18]	23%	86%	111 nM	
O=C1c2cn(-c3ccc(N4CC[C@@H](F)C4)nc3)nc2CN1c1ccncc1 [Example 2]	72%	98%	7 nM	Competition at 1 μM (%) [3]: 68%
O=C1c2cn(-c3ccc(N4CC[C@H](F)C4)nc3)nc2CN1c1ccncc1 [Example 54]	71%	88%	19 nM	
Nc1ccc(N2Cc3nn(-c4ccc(N5CCCC5)nc4)cc3C2=O)cc1F [Example 50]	94%	103%	8 nM	
O=C1c2cn(-c3ccc(N4CCCC4)nc3)nc2CN1c1ccncc1F [Example 113]	75%	91%	40 nM	
Cc1cncc(N2Cc3nn(-c4ccc(N5CC[C@@H](F)C5)nc4)cc3C2=O)c1 [Example 105]	57%	83%	149 nM	
O=C1c2cn(-c3ccc(N4CC[C@@H](F)C4)nc3)nc2CN1c1ccccn1 [Example 5]	68%	98%	26 nM	
O=C1c2cn(-c3ccc(N4CCCC4)nc3)nc2CN1c1cncc(F)c1 [Example 99]	56%	92%	82 nM	
COc1ccc(N2Cc3nn(-c4ccc(N5CC[C@@H](F)C5)nc4)cc3C2=O)cc1 [Example 27]	87%	99%	13 nM	
O=C1c2cn(-c3ccc(N4CC[C@H](F)C4)nc3)nc2CN1c1cn[nH]c1 [Example 181]	67%	75%	136 nM	
Cn1cc(N2Cc3nn(-c4ccc(N5CC[C@@H](F)C5)nc4)cc3C2=O)cn1 [Example 26]	87%	108%	20 nM	
COc1cncc(N2Cc3nn(-c4ccc(N5CC[C@H](F)C5)nc4)cc3C2=O)c1 [Example 98]	38%	76%	89 nM	
O=C1c2cn(-c3ccc(N4CC[C@@H](F)C4)nc3)nc2CN1c1cccnc1 [Example 1]				Ki ([4]; displacement of [^3H]-Abeta-Ref at 10 nM, AD brain-derived homogenates): 330 nM; selectivity for a-syn over Abeta pathological aggregates ([4]; in words): good selectivity for a-syn over Abeta; Ki ([3]; displacement of [^3H]-a-syn-Ref, average of two independent experiments): 30 nM; binding to PD brain-derived a-syn aggregates ([3]; in words): good binding; Competition at 1 μM (%) [3]: 94%

Compound	Competition at 100 nM (%) [1]	Competition at 1 μM (%) [1]	Ki [2]	further results
O=C1c2cn(-c3ccc(N4CC[C@@H](F)C4)nc3)nc2CN1c1cc(O)ccn1 [Example 166]	72%	96%	55 nM	
Cl.O=C1c2cn(-c3ccc(N4CCCC4)nc3)nc2CN1c1cnc(F)cn1 [Example 143]	80%	91%	8 nM	
Cn1ccc(-n2cc3c(n2)CN(c2cncc(F)n2)C3=O)n1 [Example 148]	77%	91%	40 nM	
O=C1c2cn(-c3ccc(N4CC[C@H](F)C4)nc3)nc2CN1c1cccnn1 [Example 151]	51%	81%	226 nM	
O=C1c2cn(-c3ccc(N4CC[C@H](F)C4)nc3)nc2CN1c1ccc(F)cc1 [Example 64]	54%	95%	2 nM	
O=C1c2cn(-c3ccc(N4CC[C@@H]([18F])C4)nc3)nc2CN1c1cccnc1 [Example-1 [^18F-1]]				SUVmax whole brain [5]: 2.0; time of uptake post injection ([5]; whole brain): 3.5 min; washout, peak to half peak ([5]; whole brain): 14 min
O=C1c2cn(-c3ccc(N4CC[C@@H](F)C4)nc3)nc2CN1c1cnccn1 [Example 7]	87%	101%	5 nM	
Cl.O=C1c2cn(-c3ccc(N4CC[C@H](F)C4)nc3)nc2CN1c1cnccn1 [Example 17]	68%	100%	21 nM	
O=C1c2cn(-c3ccc(N4CCOCC4)nc3)nc2CN1c1cnc(F)cn1 [Example 142]	92%	99%	6 nM	
Cc1c2c(nn1-c1ccc(N3CC[C@@H](F)C3)nc1)CN(c1ccccn1)C2=O [Example 95]	34%	68%	54 nM	
O=C1c2cn(-c3ccc(N4CC[C@H](F)C4)nc3)nc2CN1c1ccc(O)nc1 [Example 101]		75%	311 nM	
O=C1c2cn(-c3ccc(N4CC[C@@H](F)C4)nc3)nc2CN1c1cncc(F)c1 [Example 91]	44%	84%	42 nM	
O=C1c2cn(-c3ccc(N4CC[C@H](F)C4)nc3)nc2CN1c1ccnnc1 [Example 19]	23%	83%	74 nM	
O=C1c2cn(-c3ccc(N4CC[C@@H](F)C4)nc3)nc2CN1c1ncccc1O [Example 167]	68%	93%	56 nM	
Cc1cncc(N2Cc3nn(-c4ccc(N5CC[C@H](F)C5)nc4)cc3C2=O)c1 [Example 108]	54%	81%	182 nM	
